# Reference: ChEMBL document CHEMBL5505975, “Design, synthesis and biological evaluation of CDC20 inhibitors for treatment of triple-negative breast cancer” (Eur J Med Chem, 2024)
# The source made the active and inactive calls. The rule behind the calls is not given here.
# What was measured:
# [1] = Toxicity in female BALB/C mouse implanted with mouse 4T1 cells assessed as change in RBC level at 20 to 50 mg/kg, iv administered every two days for 21 days by routine blood analysis; assay type: organism-based; settings: in vivo, 504 h, dose 20-50 mg/kg, time 21 day
# [2] = tested on: MDA-MB-231; assay: Induction of apoptosis in human MDA-MB-231 cells assessed as viable cells at 10 uM incubated for 48 hrs by Annexin V-FITC/PI staining based flow cytometric analysis (reference value: 95.10%); assay type: functional; settings: read-out: Activity
# [3] = tested on: MDA-MB-231; assay: Cell cycle arrest in human MDA-MB-231 cells assessed as G2 phase cells at 5 uM incubated for 48 hrs by PI staining based flow cytometric analysis (reference value: 7.3%); assay type: functional
# [4] = Toxicity in female BALB/C mouse implanted with mouse 4T1 cells assessed as change in serum ALT level at 20 to 50 mg/kg, po administered every two days for 21 days; assay type: organism-based; settings: in vivo, 504 h, dose 20-50 mg/kg, time 21 day
# [5] = tested on: MDA-MB-231; assay: Induction of apoptosis in human MDA-MB-231 cells assessed as early apoptotic cells at 10 uM incubated for 48 hrs by Annexin V-FITC/PI staining based flow cytometric analysis (reference value: 2.25 %); assay type: functional
# [6] = Toxicity in female BALB/C mouse implanted with mouse 4T1 cells assessed as change in serum BUN level at 20 to 50 mg/kg, po administered every two days for 21 days; assay type: organism-based; settings: in vivo, 504 h, dose 20-50 mg/kg, time 21 day
# [7] = tested on: MDA-MB-231; assay: Induction of apoptosis in human MDA-MB-231 cells assessed as viable cells at 2.5 uM incubated for 48 hrs by Annexin V-FITC/PI staining based flow cytometric analysis (reference value: 95.10%); assay type: functional; settings: read-out: Activity
# [8] = Toxicity in female BALB/C mouse implanted with mouse 4T1 cells assessed as effect on lymphocytes at 20 to 50 mg/kg, po administered every two days for 21 days by routine blood analysis; assay type: organism-based; settings: in vivo, 504 h, dose 20-50 mg/kg, time 21 day
# [9] = tested on: MDA-MB-231; assay: Cell cycle arrest in human MDA-MB-231 cells assessed as G2 phase cells at 10 uM incubated for 48 hrs by PI staining based flow cytometric analysis (reference value: 7.3%); assay type: functional
# [10] = Toxicity in female BALB/C mouse implanted with mouse 4T1 cells assessed as liver damage at 20 to 50 mg/kg, iv administered every two days for 21 days by H and E staining based analysis; assay type: organism-based; settings: in vivo, 504 h, dose 20-50 mg/kg, time 21 day
# [11] = tested on: MDA-MB-231; assay: Induction of apoptosis in human MDA-MB-231 cells assessed as late apoptotic cells at 20 uM incubated for 48 hrs by Annexin V-FITC/PI staining based flow cytometric analysis (reference value: 1.06%); assay type: functional
# [12] = Cytotoxicity against human L02 cells assessed as reduction in cell viability incubated for 96 hrs by MTT assay; assay type: toxicity, cell-based
# [13] = Toxicity in female BALB/C mouse implanted with mouse 4T1 cells assessed as spleen damage at 20 to 50 mg/kg, po administered every two days for 21 days by H and E staining based analysis; assay type: organism-based; settings: in vivo, 504 h, dose 20-50 mg/kg, time 21 day
# [14] = Toxicity in female BALB/C mouse implanted with mouse 4T1 cells assessed as kidney damage at 20 to 50 mg/kg, iv administered every two days for 21 days by H and E staining based analysis; assay type: organism-based; settings: in vivo, 504 h, dose 20-50 mg/kg, time 21 day
# [15] = tested on: MDA-MB-231; assay: Effect on cell morphology in human MDA-MB-231 cells at 2.5 to 10 uM incubated for 24 hrs by wound healing assay; assay type: functional, cell-based; settings: dose 2.5-10 µM
# [16] = tested on: MDA-MB-231; assay: Cell cycle arrest in human MDA-MB-231 cells assessed as G1 phase cells at 10 uM incubated for 48 hrs by PI staining based flow cytometric analysis (reference value: 76.7%); assay type: functional
# [17] = Toxicity in female BALB/C mouse implanted with mouse 4T1 cells assessed as effect on neutrophils at 20 to 50 mg/kg, po administered every two days for 21 days by routine blood analysis; assay type: organism-based; settings: in vivo, 504 h, dose 20-50 mg/kg, time 21 day
# [18] = Toxicity in female BALB/C mouse implanted with mouse 4T1 cells assessed as heart damage at 20 to 50 mg/kg, po administered every two days for 21 days by H and E staining based analysis; assay type: organism-based; settings: in vivo, 504 h, dose 20-50 mg/kg, time 21 day
# [19] = tested on: MDA-MB-231; assay: Induction of apoptosis in human MDA-MB-231 cells assessed as viable cells at 20 uM incubated for 48 hrs by Annexin V-FITC/PI staining based flow cytometric analysis (reference value: 95.10%); assay type: functional; settings: read-out: Activity
# [20] = Toxicity in female BALB/C mouse implanted with mouse 4T1 cells assessed as effect on monocytes at 20 to 50 mg/kg, iv administered every two days for 21 days by routine blood analysis; assay type: organism-based; settings: in vivo, 504 h, dose 20-50 mg/kg, time 21 day
# [21] = Toxicity in female BALB/C mouse implanted with mouse 4T1 cells assessed as change in number of platelets at 20 to 50 mg/kg, po administered every two days for 21 days by routine blood analysis; assay type: organism-based; settings: in vivo, 504 h, dose 20-50 mg/kg, time 21 day
# [22] = Toxicity in female BALB/C mouse implanted with mouse 4T1 cells assessed as change in RBC level at 20 to 50 mg/kg, po administered every two days for 21 days by routine blood analysis; assay type: organism-based; settings: in vivo, 504 h, dose 20-50 mg/kg, time 21 day
# [23] = Toxicity in female BALB/C mouse implanted with mouse 4T1 cells assessed as effect on body weight at 20 to 50 mg/kg, iv administered every two days for 21 days; assay type: organism-based; settings: in vivo, 504 h, dose 20-50 mg/kg, time 21 day
# [24] = tested on: MDA-MB-231; assay: Cell cycle arrest in human MDA-MB-231 cells assessed as S phase cells at 10 uM incubated for 48 hrs by PI staining based flow cytometric analysis (reference value: 16.0%); assay type: functional
# [25] = tested on: MDA-MB-231; assay: Cell cycle arrest in human MDA-MB-231 cells assessed as G1 phase cells at 5 uM incubated for 48 hrs by PI staining based flow cytometric analysis (reference value: 76.7%); assay type: functional
# [26] = tested on: MDA-MB-231; assay: Cell cycle arrest in human MDA-MB-231 cells assessed as G1 phase cells at 20 uM incubated for 48 hrs by PI staining based flow cytometric analysis (reference value: 56.7%); assay type: functional
# [27] = Toxicity in female BALB/C mouse implanted with mouse 4T1 cells assessed as heart damage at 20 to 50 mg/kg, iv administered every two days for 21 days by H and E staining based analysis; assay type: organism-based; settings: in vivo, 504 h, dose 20-50 mg/kg, time 21 day
# [28] = Toxicity in female BALB/C mouse implanted with mouse 4T1 cells assessed as change in serum LDH level at 20 to 50 mg/kg, po administered every two days for 21 days; assay type: organism-based; settings: in vivo, 504 h, dose 20-50 mg/kg, time 21 day
# [29] = tested on: 4T1; assay: Antitumor activity against mouse 4T1 cells implanted in female BALB/C mouse assessed as inhibition of tumor growth at 20 to 50 mg/kg, iv administered every two days for 21 days; assay type: functional, organism-based; settings: dose 20-50 mg/kg, time 21.0 day
# [30] = Toxicity in female BALB/C mouse implanted with mouse 4T1 cells assessed as lung damage at 20 to 50 mg/kg, iv administered every two days for 21 days by H and E staining based analysis; assay type: organism-based; settings: in vivo, 504 h, dose 20-50 mg/kg, time 21 day
# [31] = Toxicity in female BALB/C mouse implanted with mouse 4T1 cells assessed as change in WBC level at 20 to 50 mg/kg, iv administered every two days for 21 days by routine blood analysis; assay type: organism-based; settings: in vivo, 504 h, dose 20-50 mg/kg, time 21 day
# [32] = tested on: MDA-MB-231; assay: Cell cycle arrest in human MDA-MB-231 cells assessed as S phase cells at 5 uM incubated for 48 hrs by PI staining based flow cytometric analysis (reference value: 16.0%); assay type: functional
# [33] = tested on: MDA-MB-231; assay: Induction of apoptosis in human MDA-MB-231 cells assessed as early apoptotic cells at 20 uM incubated for 48 hrs by Annexin V-FITC/PI staining based flow cytometric analysis (reference value: 2.25 %); assay type: functional
# [34] = Toxicity in female BALB/C mouse implanted with mouse 4T1 cells assessed as change in serum ALT level at 20 to 50 mg/kg, iv administered every two days for 21 days; assay type: organism-based; settings: in vivo, 504 h, dose 20-50 mg/kg, time 21 day
smiles,measurement,setting,value
CCC(=O)NC(n1cnc2c(Nc3cc(OC)c(OC)c(OC)c3)nc(N)nc21)C(Cl)(Cl)Cl (centres undefined),Activity,[1],Non-Toxic
same,viability at 10 µM,[2],92.3%
same,Activity,[3],8.6%
same,Activity,[4],Non-Toxic
same,Activity,[5],4.54%
same,Activity,[6],Non-Toxic
same,viability at 2.5 µM,[7],95.7%
same,Activity,[8],Non-Toxic
same,Activity,[9],10.6%
same,Activity,[10],Non-Toxic
same,Activity,[11],1.96%
same,IC50 at 96 h,[12],14.7 µM
same,Activity,[13],Non-Toxic
same,Activity,[14],Non-Toxic
same,Activity,[15],inactive
same,Activity,[16],77.5%
same,Activity,[17],Non-Toxic
same,Activity,[18],Non-Toxic
same,viability at 20 µM,[19],91.7%
same,Activity,[20],Non-Toxic
same,Activity,[21],Non-Toxic
same,Activity,[22],Non-Toxic
same,Activity,[23],Non-Toxic
same,Activity,[24],11.9%
same,Activity,[25],62.8%
same,Activity,[26],41%
same,Activity,[27],Non-Toxic
same,Activity,[28],Non-Toxic
same,Activity,[29],Active
same,Activity,[30],Non-Toxic
same,Activity,[31],Non-Toxic
same,Activity,[32],28.6%
same,Activity,[33],5.41%
same,Activity,[34],Non-Toxic
